Data from patent US20220146497A1, “Method of Modulating a Fibrotic Condition” (The Procter & Gamble Company, priority 2019, published 2022).

How the values were obtained:
COL1A1 = test: Red-COL1A1 mCherry reporter assay (fluorescence from reporter downstream of the endogenous COL1A1 promoter); format: cell-based, human; conditions: increasing doses, immortalized tertBJ fibroblasts, FIG. 3A
From the text: In this example, RNA interference (“RNAi”) screening was used to identify genes that appear to inhibit collagen synthesis. Immortalized human skin fibroblasts (BJhTERT, available from ATCC, Manassas, Va. were modified to place an mCherry reporter gene downstream of the endogenous promoter for COL1A1 using […] (TALENs). COL1A1 is well known for its role in the synthesis of Type I collagen, sometimes referred to as collagen I, which is a fibrillar collagen that accounts for over 90% of the collagen found in the human body. The reporter gene codes for the mCherry RFP, which can be quantitated using known fluorescent protein detection techniques. Transforming growth factor beta (“TGFβ”), a well-known COL1A1 activating cytokine, was used in a fluorescence-activated cell sorting (“FACS”) technique to select for a cell line with low endogenous expression and high levels of inducible expression of the mCherry gene. […]
Automated image acquisition and analysis was used to quantitate the fluorescent protein. […] Images were analyzed using METAXPRESS brand high-content image analysis software from Molecular Devices. The percentage of cells with positive nuclear-localizing mCherry signal above background was determined using the “Translocation-Enhanced” module. […]
This increased fluorescence directly correlates to increased collagen synthesis. […]

[1] = system: immortalized tertBJ fibroblasts cells; test: Cell count by DAPI staining of nuclei (toxicity); format: cell-based, human; conditions: increasing concentrations, FIG. 3B
Protocol: This increased fluorescence directly correlates to increased collagen synthesis. The results of the positive control (TGFβ), the vehicle control for the TGFβ (Media Control), and the vehicle control for the alpha-ergocryptine (DMSO control) are also illustrated in FIG. 3A. […] Cell count was determined by staining the nuclei with 4′,6-diamidino-2-phenylindole (DAPI), which is a fluorescent stain that binds strongly to adenine-thymine rich regions in DNA. DAPI staining is a well-known technique for determining cell count in fluorescence microscopy.

CC(C)C[C@H]1C(=O)N2CCC[C@H]2[C@]2(O)O[C@](NC(=O)[C@@H]3C=C4c5cccc6[nH]cc(c56)C[C@H]4N(C)C3)(C(C)C)C(=O)N12 [alpha-ergocryptine]
COL1A1 expression (fluorescence of mCherry reporter) (COL1A1): increased COL1A1 expression
toxicity as determined by cell counts (DAPI) [1]: not toxic
